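A five-concentration, 48-hour dose response in 96-well plates underlies each endpoint, interpolated linearly between surrounding concentrations. GI50 marks 50% less growth.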 The source made the active and inactive calls. Cut-off read from the data, not from the text of the source: active = GI50 up to about 1.1 µM and inactive = higher.
Key:
Assay in all cases: NCI-60 cell line screen, 48 h
CAKI-1 = tested on: CAKI-1
UO-31 = tested on: UO-31
NCI-H522 = tested on: NCI-H522
SW-620 = tested on: SW-620
PC-3 = tested on: PC-3
NCI-H23 = tested on: NCI-H23
HT-29 = tested on: HT-29
SF-268 = tested on: SF-268
Malme-3M = tested on: Malme-3M
SK-OV-3 = tested on: SK-OV-3
NCI-H226 = tested on: NCI-H226
MOLT-4 = tested on: MOLT-4
MDA-MB-231 = tested on: MDA-MB-231
RXF 393 = tested on: RXF 393
OVCAR-8 = tested on: OVCAR-8
BT-549 = tested on: BT-549
SNB-19 = tested on: SNB-19
HCT-116 = tested on: HCT-116
TK-10 = tested on: TK-10
SN12C = tested on: SN12C
SF-295 = tested on: SF-295
DU-145 = tested on: DU-145
SF-539 = tested on: SF-539
U-251 = tested on: U-251
HCT-15 = tested on: HCT-15
MDA-MB-435 = tested on: MDA-MB-435
786-0 = tested on: 786-0
EKVX = tested on: EKVX
MDA-N = tested on: MDA-N
T47D = tested on: T47D
SK-MEL-5 = tested on: SK-MEL-5
A498 = tested on: A498
KM12 = tested on: KM12
HCC 2998 = tested on: HCC 2998
K562 = tested on: K562
LOX IMVI = tested on: LOX IMVI
M14 = tested on: M14
COLO 205 = tested on: COLO 205
ACHN = tested on: ACHN
OVCAR-3 = tested on: OVCAR-3
SR = tested on: SR
NCI/ADR-RES = tested on: NCI/ADR-RES
A549 = tested on: A549
HOP-62 = tested on: HOP-62
OVCAR-4 = tested on: OVCAR-4
Hs-578T = tested on: Hs-578T
UACC-62 = tested on: UACC-62
UACC-257 = tested on: UACC-257
RPMI-8226 = tested on: RPMI-8226
SNB-75 = tested on: SNB-75
OVCAR-5 = tested on: OVCAR-5
NCI-H460 = tested on: NCI-H460
CCRF-CEM = tested on: CCRF-CEM
HL-60 = tested on: HL-60
SK-MEL-28 = tested on: SK-MEL-28
HOP-92 = tested on: HOP-92
IGROV-1 = tested on: IGROV-1
SK-MEL-2 = tested on: SK-MEL-2

Cn1c(=O)c2[nH]c(/N=N\n3ccc4ccccc43)nc2n(C)c1=O
GI50 (CAKI-1): > 100 µM (inactive)
GI50 (UO-31): > 100 µM (inactive)
GI50 (NCI-H522): > 100 µM (inactive)
GI50 (SW-620): > 100 µM (inactive)
GI50 (PC-3): > 100 µM (inactive)
GI50 (NCI-H23): > 100 µM (inactive)
GI50 (HT-29): > 100 µM (inactive)
GI50 (SF-268): > 100 µM (inactive)
GI50 (Malme-3M): > 100 µM (inactive)
GI50 (SK-OV-3): > 100 µM (inactive)
GI50 (NCI-H226): > 100 µM (inactive)
GI50 (MOLT-4): > 100 µM (inactive)
GI50 (MDA-MB-231): > 100 µM (inactive)
GI50 (RXF 393): > 100 µM (inactive)
GI50 (OVCAR-8): > 100 µM (inactive)
GI50 (BT-549): > 100 µM (inactive)
GI50 (SNB-19): > 100 µM (inactive)
GI50 (HCT-116): > 100 µM (inactive)
GI50 (TK-10): > 100 µM (inactive)
GI50 (SN12C): > 100 µM (inactive)
GI50 (SF-295): > 100 µM (inactive)
GI50 (DU-145): > 100 µM (inactive)
GI50 (SF-539): > 100 µM (inactive)
GI50 (U-251): > 100 µM (inactive)
GI50 (HCT-15): > 100 µM
GI50 (MDA-MB-435): > 100 µM (inactive)
GI50 (786-0): > 100 µM (inactive)
GI50 (EKVX): > 100 µM (inactive)
GI50 (MDA-N): > 100 µM (inactive)
GI50 (T47D): > 100 µM (inactive)
GI50 (SK-MEL-5): > 100 µM (inactive)
GI50 (A498): > 100 µM (inactive)
GI50 (KM12): > 100 µM (inactive)
GI50 (HCC 2998): > 100 µM (inactive)
GI50 (K562): > 100 µM (inactive)
GI50 (LOX IMVI): > 100 µM (inactive)
GI50 (M14): > 100 µM (inactive)
GI50 (COLO 205): > 100 µM (inactive)
GI50 (ACHN): > 100 µM (inactive)
GI50 (OVCAR-3): > 100 µM (inactive)
GI50 (SR): > 100 µM (inactive)
GI50 (NCI/ADR-RES): > 100 µM (inactive)
GI50 (A549): > 100 µM (inactive)
GI50 (HOP-62): > 100 µM (inactive)
GI50 (OVCAR-4): > 100 µM (inactive)
GI50 (Hs-578T): > 100 µM (inactive)
GI50 (UACC-62): > 100 µM (inactive)
GI50 (UACC-257): > 100 µM (inactive)
GI50 (RPMI-8226): > 100 µM (inactive)
GI50 (SNB-75): > 100 µM (inactive)
GI50 (OVCAR-5): > 100 µM (inactive)
GI50 (NCI-H460): > 100 µM (inactive)
GI50 (CCRF-CEM): > 100 µM (inactive)
GI50 (HL-60): > 100 µM (inactive)
GI50 (SK-MEL-28): > 100 µM (inactive)

COC(=O)CCCc1c(-c2[nH]c3ccccc3c2CCCC(=O)OC)[nH]c2ccccc12
GI50 (CAKI-1): > 100 µM (inactive)
GI50 (UO-31): > 100 µM (inactive)
GI50 (NCI-H522): > 100 µM (inactive)
GI50 (SW-620): > 100 µM (inactive)
GI50 (PC-3): > 100 µM (inactive)
GI50 (NCI-H23): > 100 µM (inactive)
GI50 (HT-29): > 100 µM (inactive)
GI50 (SF-268): > 100 µM (inactive)
GI50 (Malme-3M): 39.3 µM (inactive)
GI50 (SK-OV-3): > 100 µM (inactive)
GI50 (NCI-H226): > 100 µM (inactive)
GI50 (MOLT-4): > 100 µM (inactive)
GI50 (MDA-MB-231): > 100 µM (inactive)
GI50 (RXF 393): > 100 µM (inactive)
GI50 (OVCAR-8): > 100 µM (inactive)
GI50 (BT-549): > 100 µM (inactive)
GI50 (SNB-19): > 100 µM (inactive)
GI50 (HCT-116): > 100 µM (inactive)
GI50 (TK-10): > 100 µM (inactive)
GI50 (SN12C): > 100 µM (inactive)
GI50 (SF-295): > 100 µM (inactive)
GI50 (DU-145): > 100 µM (inactive)
GI50 (SF-539): > 100 µM (inactive)
GI50 (U-251): > 100 µM (inactive)
GI50 (HCT-15): > 100 µM
GI50 (MDA-MB-435): > 100 µM (inactive)
GI50 (786-0): > 100 µM (inactive)
GI50 (EKVX): > 100 µM (inactive)
GI50 (MDA-N): > 100 µM (inactive)
GI50 (T47D): > 100 µM (inactive)
GI50 (SK-MEL-5): > 100 µM (inactive)
GI50 (A498): > 100 µM (inactive)
GI50 (KM12): > 100 µM (inactive)
GI50 (K562): > 100 µM (inactive)
GI50 (LOX IMVI): > 100 µM (inactive)
GI50 (M14): > 100 µM (inactive)
GI50 (COLO 205): > 100 µM (inactive)
GI50 (ACHN): > 100 µM (inactive)
GI50 (OVCAR-3): > 100 µM (inactive)
GI50 (HOP-92): > 100 µM (inactive)
GI50 (NCI/ADR-RES): > 100 µM (inactive)
GI50 (A549): > 100 µM (inactive)
GI50 (HOP-62): > 100 µM (inactive)
GI50 (Hs-578T): > 100 µM (inactive)
GI50 (UACC-62): > 100 µM (inactive)
GI50 (UACC-257): > 100 µM (inactive)
GI50 (IGROV-1): > 100 µM (inactive)
GI50 (RPMI-8226): > 100 µM (inactive)
GI50 (SNB-75): 13.6 µM (inactive)
GI50 (OVCAR-5): > 100 µM (inactive)
GI50 (NCI-H460): > 100 µM (inactive)
GI50 (SK-MEL-2): > 100 µM (inactive)
GI50 (CCRF-CEM): > 100 µM (inactive)
GI50 (HL-60): > 100 µM (inactive)
GI50 (SK-MEL-28): > 100 µM (inactive)

Cc1nc2ccccc2c(=O)n1NC(=O)c1ccccn1
GI50 (UO-31): > 100 µM (inactive)
GI50 (NCI-H522): > 100 µM (inactive)
GI50 (SW-620): > 100 µM (inactive)
GI50 (PC-3): > 100 µM (inactive)
GI50 (NCI-H23): > 100 µM (inactive)
GI50 (HT-29): > 100 µM (inactive)
GI50 (SF-268): > 100 µM (inactive)
GI50 (Malme-3M): > 100 µM (inactive)
GI50 (SK-OV-3): > 100 µM (inactive)
GI50 (MOLT-4): > 100 µM (inactive)
GI50 (MDA-MB-231): > 100 µM (inactive)
GI50 (RXF 393): > 100 µM (inactive)
GI50 (OVCAR-8): > 100 µM (inactive)
GI50 (BT-549): > 100 µM (inactive)
GI50 (SNB-19): > 100 µM (inactive)
GI50 (HCT-116): > 100 µM (inactive)
GI50 (TK-10): > 100 µM (inactive)
GI50 (SN12C): > 100 µM (inactive)
GI50 (SF-295): > 100 µM (inactive)
GI50 (DU-145): > 100 µM (inactive)
GI50 (SF-539): > 100 µM (inactive)
GI50 (U-251): > 100 µM (inactive)
GI50 (MDA-MB-435): > 100 µM (inactive)
GI50 (786-0): > 100 µM (inactive)
GI50 (EKVX): > 100 µM (inactive)
GI50 (MDA-N): > 100 µM (inactive)
GI50 (T47D): > 100 µM (inactive)
GI50 (SK-MEL-5): > 100 µM (inactive)
GI50 (A498): > 100 µM (inactive)
GI50 (KM12): > 100 µM (inactive)
GI50 (HCC 2998): > 100 µM (inactive)
GI50 (K562): > 100 µM (inactive)
GI50 (LOX IMVI): > 100 µM (inactive)
GI50 (M14): > 100 µM (inactive)
GI50 (COLO 205): > 100 µM (inactive)
GI50 (ACHN): > 100 µM (inactive)
GI50 (OVCAR-3): > 100 µM (inactive)
GI50 (HOP-92): > 100 µM (inactive)
GI50 (SR): > 100 µM (inactive)
GI50 (NCI/ADR-RES): > 100 µM (inactive)
GI50 (A549): > 100 µM (inactive)
GI50 (HOP-62): > 100 µM (inactive)
GI50 (OVCAR-4): > 100 µM (inactive)
GI50 (Hs-578T): > 100 µM (inactive)
GI50 (UACC-62): > 100 µM (inactive)
GI50 (UACC-257): > 100 µM (inactive)
GI50 (IGROV-1): > 100 µM (inactive)
GI50 (RPMI-8226): > 100 µM (inactive)
GI50 (SNB-75): 35.7 µM (inactive)
GI50 (NCI-H460): > 100 µM (inactive)
GI50 (CCRF-CEM): > 100 µM (inactive)
GI50 (HL-60): > 100 µM (inactive)
GI50 (SK-MEL-28): > 100 µM (inactive)

— ChEMBL document CHEMBL1201862, “PubChem BioAssay data set” (2004)
